Measurements published in patent US20250195513A1, “DEGRADATION OF IRAK4 BY CONJUGATION OF IRAK4 INHIBITORS WITH E3 LIGASE LIGAND AND METHODS OF USE” (BeiGene, Ltd., priority 2022, published 2025).

Experiments:
IRAK4 [1] = target: T1, IRAK4 (Homo sapiens, UniProt Q9NWZ3); assay: IRAK4 Degradation Assay with Human Serum (Karpas299, HTRF/TR-FRET); format: cell-based; settings: Karpas-299 in human serum, 24 hrs treatment; for DC50: read-out: IRAK4 degradtion with human serum assay DC50; for Dmax: read-out: IRAK4 degradtion with human serum assay Dmax (%)
T1 construct: endogenous in cells; host or cells: Karpas299
T1 sequence (Q9NWZ3 1-460): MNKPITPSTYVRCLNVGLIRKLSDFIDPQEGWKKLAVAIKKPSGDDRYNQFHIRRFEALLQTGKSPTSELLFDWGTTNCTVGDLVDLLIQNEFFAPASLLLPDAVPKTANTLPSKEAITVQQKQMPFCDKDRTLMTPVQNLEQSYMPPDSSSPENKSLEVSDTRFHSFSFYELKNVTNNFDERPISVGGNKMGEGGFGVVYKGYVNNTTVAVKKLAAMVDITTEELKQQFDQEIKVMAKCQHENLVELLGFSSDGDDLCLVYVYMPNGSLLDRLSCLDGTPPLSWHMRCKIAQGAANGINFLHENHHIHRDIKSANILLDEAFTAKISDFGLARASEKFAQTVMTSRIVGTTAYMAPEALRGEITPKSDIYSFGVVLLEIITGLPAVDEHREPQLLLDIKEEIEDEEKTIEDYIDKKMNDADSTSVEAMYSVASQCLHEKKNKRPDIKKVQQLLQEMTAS
Procedure, shortened: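 Remaining IRAK4 measured by TR-FRET immunoassay on lysates of Karpas299 cells exposed 24 h to compound dilution series in human serum AB. DC50 derived from a Hill-slope fit of % degradation versus concentration.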

IRAK4 [2] = target: T1, IRAK4; assay: IRAK4 Degradation Assay (Karpas299, HTRF/TR-FRET); format: cell-based; settings: Karpas-299 cells, 24 h treatment; for Dmax: read-out: IRAK4 in Karpas-299 (24 h) Dmax (%); for DC50: read-out: IRAK4 in Karpas-299 (24 h) DC50
Procedure, shortened: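 Compound potency as DC50 (IC50) came from four-parameter fits of percent IRAK4 degradation. IRAK4 was measured by HTRF (665/620 nm) in lysates of Karpas299 cells seeded at 0.2 million per well. Cells had been treated with compound dilutions for 5 or 24 h.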

[3] = maximum percentage of degradation

| Structure (SMILES) | DC50 (IRAK4 [1]) | Dmax (IRAK4 [1]) | Dmax (IRAK4 [2]; [3]) | DC50 (IRAK4 [2]) | IRAK4 degradtion with human serum assay Dmax (%) (IRAK4 [1]) | IRAK4 in Karpas-299 (24 h) Dmax (%) (IRAK4 [2]; [3]) |
| --- | --- | --- | --- | --- | --- | --- |
| COC[C@H]1CN([C@H]2CC[C@H](n3cc4cc(NC(=O)c5ccc6cc(C#N)cnn56)c(C(C)(C)O)cc4n3)CC2)CCN1C(=O)[C@@H]1CCN(c2cc(F)c([C@H]3CCC(=O)NC3=O)c(F)c2)C1 [Example 313, 3-cyano-N-(2-((1R,4r)-4-((R)-4-((R)-1-(4-((R)-2,6-dioxopiperidin-3-yl)-3,5-difluorophenyl)pyrrolidine-3-carbonyl)-3-(methoxymethyl)piperazin-1-yl)cyclohexyl)-6-(2-hydroxypropan-2-yl)-2H-indazol-5-yl)pyrrolo[1,2-b]pyridazine-7-carboxamide] | 24 nM | 96% | 98% | 0.3 nM |  |  |
| COC[C@H]1CN([C@H]2CC[C@H](n3cc4cc(NC(=O)c5ccc6cc(C#N)cnn56)c(C(C)(C)O)cc4n3)CC2)CCN1C(=O)[C@@H]1CCN(c2cc(F)c(N3CCC(=O)NC3=O)c(F)c2)C1 [Example 316, 3-cyano-N-(2-((1R,4r)-4-((R)-4-((R)-1-(4-(2,4-dioxotetrahydropyrimidin-1(2H)-yl)-3,5-difluorophenyl)pyrrolidine-3-carbonyl)-3-(methoxymethyl)piperazin-1-yl)cyclohexyl)-6-(2-hydroxypropan-2-yl)-2H-indazol-5-yl)pyrrolo[1,2-b]pyridazine-7-carboxamide] | 35 nM | 95% | 97% | 1.6 nM |  |  |
| COC[C@H]1CN(C2CCN(c3cc(F)c([C@H]4CCC(=O)NC4=O)c(F)c3)CC2)CCN1[C@H]1CC[C@H](n2cc3cc(NC(=O)c4ccc5cc(C#N)cnn45)c(C(C)(C)O)cc3n2)CC1 [Example 324, 3-cyano-N-(2-((1R,4r)-4-((R)-4-(1-(4-((R)-2,6-dioxopiperidin-3-yl)-3,5-difluorophenyl)piperidin-4-yl)-2-(methoxymethyl)piperazin-1-yl)cyclohexyl)-6-(2-hydroxypropan-2-yl)-2H-indazol-5-yl)pyrrolo[1,2-b]pyridazine-7-carboxamide] | 23 nM | 99% | 95% | 1 nM |  |  |
| CC(C)(O)c1cc2nn([C@H]3C[C@H](N4CCN(C(=O)[C@@H]5CCN(c6cc(F)c([C@H]7CCC(=O)NC7=O)c(F)c6)C5)CC4)C3)cc2cc1NC(=O)c1ccc2cc(C#N)cnn12 [Example 329, 3-cyano-N-(2-((1R,3r)-3-(4-((R)-1-(4-((R)-2,6-dioxopiperidin-3-yl)-3,5-difluorophenyl)pyrrolidine-3-carbonyl)piperazin-1-yl)cyclobutyl)-6-(2-hydroxypropan-2-yl)-2H-indazol-5-yl)pyrrolo[1,2-b]pyridazine-7-carboxamide] | 19 nM |  |  | 0.8 nM | 98% | 96% |
| CC(C)(O)c1cc2nn([C@H]3CC[C@H](N4CCN(CCc5cc(F)c([C@H]6CCC(=O)NC6=O)c(F)c5)CC4=O)CC3)cc2cc1NC(=O)c1ccc2cc(C#N)cnn12 [Example 334, 3-cyano-N-(2-((1R,4r)-4-(4-(4-((R)-2,6-dioxopiperidin-3-yl)-3,5-difluorophenethyl)-2-oxopiperazin-1-yl)cyclohexyl)-6-(2-hydroxypropan-2-yl)-2H-indazol-5-yl)pyrrolo[1,2-b]pyridazine-7-carboxamide] | 6.3 nM | 94% | 95% | 0.6 nM |  |  |
| CC(C)(O)c1cc2nn([C@H]3CC[C@H](N4CCN(C5CN(c6cc(F)c([C@H]7CCC(=O)NC7=O)c(F)c6)C5)CC4=O)CC3)cc2cc1NC(=O)c1ccc2cc(C#N)cnn12 [Example 335, 3-cyano-N-(2-((1R,4r)-4-(4-(1-(4-((R)-2,6-dioxopiperidin-3-yl)-3,5-difluorophenyl)azetidin-3-yl)-2-oxopiperazin-1-yl)cyclohexyl)-6-(2-hydroxypropan-2-yl)-2H-indazol-5-yl)pyrrolo[1,2-b]pyridazine-7-carboxamide] | 64 nM | 99% | 93% | 0.6 nM |  |  |
| COc1cc2nn([C@H]3CC[C@H](N4CCN(C(=O)C5CN(c6cc(F)c([C@H]7CCC(=O)NC7=O)c(F)c6)C5)CC4)CC3)cc2cc1NC(=O)c1ccc2cc(C#N)cnn12 [Example 336, 3-cyano-N-(2-((1r,4r)-4-(4-(1-(4-((R)-2,6-dioxopiperidin-3-yl)-3,5-difluorophenyl)azetidine-3-carbonyl)piperazin-1-yl)cyclohexyl)-6-methoxy-2H-indazol-5-yl)pyrrolo[1,2-b]pyridazine-7-carboxamide] | 13 nM | 92% | 100% | 0.2 nM |  |  |
| COc1cc2nn([C@H]3CC[C@H](N4CCN(CCc5cc(F)c([C@H]6CCC(=O)NC6=O)c(F)c5)CC4)CC3)cc2cc1NC(=O)c1ccc2cc(C#N)cnn12 [Example 337, 3-cyano-N-(2-((1R,4r)-4-(4-(4-((R)-2,6-dioxopiperidin-3-yl)-3,5-difluorophenethyl)piperazin-1-yl)cyclohexyl)-6-methoxy-2H-indazol-5-yl)pyrrolo[1,2-b]pyridazine-7-carboxamide] | 10 nM | 89% | 96% | 2.1 nM |  |  |
| COc1cc2nn([C@H]3CC[C@H](N4CCN(C5CCN(c6cc(F)c([C@H]7CCC(=O)NC7=O)c(F)c6)CC5)CC4)CC3)cc2cc1NC(=O)c1ccc2cc(C#N)cnn12 [Example 338, 3-cyano-N-(2-((1r,4r)-4-(4-(1-(4-((R)-2,6-dioxopiperidin-3-yl)-3,5-difluorophenyl)piperidin-4-yl)piperazin-1-yl)cyclohexyl)-6-methoxy-2H-indazol-5-yl)pyrrolo[1,2-b]pyridazine-7-carboxamide] | 13 nM | 92% | 95% | 1.1 nM |  |  |

Continued, values first:

| DC50 (IRAK4 [1]) | Dmax (IRAK4 [1]) | Dmax (IRAK4 [2]; [3]) | DC50 (IRAK4 [2]) | IRAK4 degradtion with human serum assay Dmax (%) (IRAK4 [1]) | IRAK4 in Karpas-299 (24 h) Dmax (%) (IRAK4 [2]; [3]) | Structure (SMILES) |
| --- | --- | --- | --- | --- | --- | --- |
| 39 nM | 95% | 91% | 1.1 nM |  |  | COC[C@H]1CN([C@H]2CC[C@H](n3cc4cc(NC(=O)c5ccc6cc(C#N)cnn56)c(C(C)(C)O)cc4n3)CC2)CCN1C1CN(c2cc(F)c([C@H]3CCC(=O)NC3=O)c(F)c2)C1 [Example 318, 3-cyano-N-(2-((1R,4r)-4-((R)-4-(1-(4-((R)-2,6-dioxopiperidin-3-yl)-3,5-difluorophenyl)azetidin-3-yl)-3-(methoxymethyl)piperazin-1-yl)cyclohexyl)-6-(2-hydroxypropan-2-yl)-2H-indazol-5-yl)pyrrolo[1,2-b]pyridazine-7-carboxamide] |
| 14 nM | 98% | 94% | 2.1 nM |  |  | COC[C@H]1CN(C2CN(c3cc(F)c([C@H]4CCC(=O)NC4=O)c(F)c3)C2)CCN1[C@H]1CC[C@H](n2cc3cc(NC(=O)c4ccc5cc(C#N)cnn45)c(C(C)(C)O)cc3n2)CC1 [Example 323, 3-cyano-N-(2-((1R,4r)-4-((R)-4-(1-(4-((R)-2,6-dioxopiperidin-3-yl)-3,5-difluorophenyl)azetidin-3-yl)-2-(methoxymethyl)piperazin-1-yl)cyclohexyl)-6-(2-hydroxypropan-2-yl)-2H-indazol-5-yl)pyrrolo[1,2-b]pyridazine-7-carboxamide] |
| 4.2 nM | 95% | 90% | 0.9 nM |  |  | COC[C@@H]1CN(C2CN(c3cc(F)c([C@H]4CCC(=O)NC4=O)c(F)c3)C2)CCN1[C@H]1CC[C@H](n2cc3cc(NC(=O)c4ccc5cc(C#N)cnn45)c(C(C)(C)O)cc3n2)CC1 [Example 327, 3-cyano-N-(2-((1S,4r)-4-((S)-4-(1-(4-((R)-2,6-dioxopiperidin-3-yl)-3,5-difluorophenyl)azetidin-3-yl)-2-(methoxymethyl)piperazin-1-yl)cyclohexyl)-6-(2-hydroxypropan-2-yl)-2H-indazol-5-yl)pyrrolo[1,2-b]pyridazine-7-carboxamide] |
| 19 nM | 101% | 98% | 0.8 nM |  |  | COC[C@@H]1CN(C2CCN(c3cc(F)c([C@H]4CCC(=O)NC4=O)c(F)c3)CC2)CCN1[C@H]1CC[C@H](n2cc3cc(NC(=O)c4ccc5cc(C#N)cnn45)c(C(C)(C)O)cc3n2)CC1 [Example 328, 3-cyano-N-(2-((1S,4r)-4-((S)-4-(1-(4-((R)-2,6-dioxopiperidin-3-yl)-3,5-difluorophenyl)piperidin-4-yl)-2-(methoxymethyl)piperazin-1-yl)cyclohexyl)-6-(2-hydroxypropan-2-yl)-2H-indazol-5-yl)pyrrolo[1,2-b]pyridazine-7-carboxamide] |
